Measurements published in patent US6197788A, “(-)-mefloquine to block puringergic receptors and to treat movement or neurodegenerative disorders” (Vernalis Research Limited, priority 1997, dated 2001).
Like-named read-outs stand apart in the source and are kept apart here.

Columns and labels:
[1] = 150 mg/day slow release oral, after one week; 10080 min; cited from earlier work
Parkinson's disease = details: 150 mg/day slow release oral, up to 12 weeks, cited from earlier work
[2] = target: human recombinant (HEK-293) adenosine A2A receptor; details: read-out: Ki adenosine A2A, cited from earlier work
[3] = target: bovine striatal adenosine receptors; assay: Displacement of [3H]-NECA (non-selective P1 ligand) binding to striatal membranes
[4] = tested on: mouse striatal and frontal cortex neurochemistry; details: for dopamine or 5-HT neurochemistry and transmitter metabolites: (+)- versus (-)-enantiomer
[5] = target: human recombinant (HEK-293) adenosine A3 receptor; details: read-out: Ki adenosine A3; cited from earlier work
[6] = human, in vivo; cited from earlier work
[7] = tested on: haloperidol-induced catalepsy; assay: Haloperidol-induced catalepsy in the rat; details: 0.1-10 mg/kg p.o. 6 h prior to testing; haloperidol 0.2 mg/kg i.p.
adenosine A1 receptor = details: read-out: Ki adenosine A1, cited from earlier work
catalepsy = details: cited from earlier work
[8] = tested on: haloperidol-induced catalepsy; details: literature; cited from earlier work

In the case of `Cn1c(=O)c2[nH]cnc2n(C)c1=O` [THEOPHYLLINE, theophylline], the serum theophylline levels [1] is given as 4.44 mg/L, the “mean objective disability scores” value (Parkinson's disease; 15 patients) is given as “significant improvements” and the “patients reporting moderate or marked subjective improvement” value (Parkinson's disease; of 15 patients) is given as 11.

In the case of `O[C@H](c1cc(C(F)(F)F)nc2c(C(F)(F)F)cccc12)[C@@H]1CCCCN1` [(+) enantiomer, (+)-(11R,2'S)-α-2-piperidinyl-2,8-bis(trifluoromethyl)-4-quinolinemethanol], the Ki [3] is reported as 38000 nM, the frontal cortex acetylcholine ([4]; 100 mg/kg p.o., 24 h) is reported as “unaffected” and the “dopamine or 5-HT neurochemistry and transmitter metabolites” value ([4]; 100 mg/kg p.o., 24 h) is reported as “No significant difference”.

In the case of `OC[C@H]1O[C@@H](n2cnc3c(NC4CCCCC4)ncnc32)[C@H](O)[C@@H]1O` [CHA], the Ki [5] is listed as 7700 nM and the Ki [2] is listed as 510 nM.

In the case of `O[C@@H](c1cc(C(F)(F)F)nc2c(C(F)(F)F)cccc12)[C@H]1CCCCN1` [(-) enantiomer, (-)-(11S,2'R)-α-2-piperidinyl-2,8-bis(trifluoromethyl)-4-quinolinemethanol], the half life [6] is given as 14.4 days, the Ki [3] is given as 83 nM and the “blocking of haloperidol-induced catalepsy” value [7] is given as “capable of blocking haloperidol-induced catalepsy”. The frontal cortex acetylcholine ([4]; 100 mg/kg p.o., 24 h) was “unaffected”, the “striatal acetylcholine content, (-)- versus (+)-enantiomer” value ([4]; 100 mg/kg p.o., 24 h) was “significantly higher” and the “striatal acetylcholine content, post-hoc Duncan's test between enantiomers” value ([4]; 100 mg/kg p.o., 24 h) was “between the (+)-enantiomer and the (-)-enantiomer (p<0.01)”. The “striatal acetylcholine content, post-hoc Duncan's test versus vehicle” value ([4]; 100 mg/kg p.o., 24 h) was “significant difference between vehicle and the (-)-enantiomer (p<0.05)”, the “dopamine or 5-HT neurochemistry and transmitter metabolites” value ([4]; 100 mg/kg p.o., 24 h) was “No significant difference” and the “acetylcholine release in striatum (suggested by FIG. 6)” value ([4]; inferred from tissue acetylcholine content) was “inhibits acetylcholine release in striatum”.

For `CNC(=O)[C@H]1O[C@@H](n2cnc3c(N)ncnc32)[C@H](O)[C@@H]1O` [MECA, 5'-N-methylcarboxamidoadenosine], the Ki [3] was 58 nM.

In the case of `CCn1c(=O)c2c(nc(/C=C/c3ccc(OC)c(OC)c3)n2C)n(CC)c1=O` [KW-6002], the Ki [2] is listed as 13 nM and the Ki (adenosine A1 receptor) is listed as 580 nM.

In the case of `CCCn1c(=O)c2c(nc(/C=C/c3ccc(OC)c(OC)c3)n2C)n(CCC)c1=O` [KF17837, (E)-8-(3,4-dimethoxystyryl)-1,3-dipropyl-7-methylxanthine], the “anticataleptic effects of a subthreshold dose of L-DOPA plus benserazide” value (catalepsy; combination) is listed as “potentiated”, the “catalepsy induced by haloperidol and reserpine” value (catalepsy; in vivo) is listed as “reduced” and the “cataleptic responses induced by intracerebroventricular CGS 21680” value (catalepsy; oral administration) is listed as “significantly ameliorated”. For the same molecule, the Ki ([2]; comparative literature data) was 8 nM and the Ki (adenosine A1 receptor; comparative literature data) was 390 nM.

In the case of `N[C@@H](Cc1ccc(O)c(O)c1)C(=O)O` [L-DOPA], the “blocking of haloperidol-induced catalepsy” value [8] is listed as “block haloperidol-induced catalepsy”.
